How the values were obtained:
[1] = Pharmacokinetic Measurement of Compound 1 (LC-MS/MS); format: in vivo, mouse; settings: C57BL/6 mice
Text: The mice are subjected to cardiac puncture and blood samples were collected using syringes pre-filled with K2EDTA or heparin. […] Hemi-brain tissue was homogenized with 3× volumes of ice-cold water, then further diluted 2× with blank mouse plasma prior to analysis. […]

[2] = test system: Male C57BL/6 mice aged 20-21 months; test: Cortical brain lysate Cardiovascular Disease Panel (Luminex); format: in vivo, mouse; settings: 10 mg/kg po one month
Description: Male C57BL/6 mice aged 20-21 months were treated with Vehicle or 10 mg/kg Compound 1 LTA4H inhibitor po for one month. Mice were anesthetized and perfused with saline. Brain tissue was collected, and sub dissected into cortex and hippocampus. Cortex samples were lysed in RIPA buffer and the soluble supernatant fraction was sent to Eve Technologies for analysis on the Cardiovascular Disease Panel using Luminex technology.

[3] = test system: aged wild type (WT; C57BL/6) mice; test: Contextual Fear Conditioning (CFC); format: in vivo, mouse; settings: 10 mg/kg PO daily, after 8 days of treatment
Description: Mice were brought into the testing room immediately before their trial to avoid exposure to sounds and scents from testing. Day 1: For training, mice were placed in the chambers, bright house light and fan on, for 2 minutes. Then an auditory cue (2000 Hz, 70 dB, conditioned stimulus (CS)) was presented for 30 seconds. A 2 second foot shock (0.6 mA; unconditioned stimulus (US)) was administered for the final 2 seconds of the CS. This procedure was repeated once, each after a 2-minute interval, and the mouse was removed from the chamber 30 seconds after the second shock. The pans, chamber walls and grid floors were cleaned with 70% ethanol between trials. Day 2: […] after the training, the mouse was returned to the same chamber in which the training occurred (memory for context), and freezing behavior was recorded for 3 min. The mouse was returned to its home cage. The pans, chamber walls, and grid floors were cleaned with 70% ethanol between trials. Day 3: 24 hours after context testing, the mouse was returned to the same chamber and freezing was recorded in a novel environment (altered context) and in response to the cue (memory for cue). […] The mouse was placed in the novel environment and freezing was recorded for 2 minutes. The auditory cue (2000 Hz, 70 dB, CS) was then presented for 30 seconds, and freezing was again recorded for 2 minutes. […]

[4] = test system: LTA4H hydrolysis activity in mouse whole blood; test: Ex Vivo LTB4 Assay, mouse blood; format: cell-based; settings: mouse whole blood incubated with compound
Description: (§1) Whole blood was incubated with Compound 1 or vehicle and then a calcium ionophore (Calcimycin, A23187), or 10% DMSO. LTB4 levels in plasma were measured using ELISA.
(§2) FIGS. 36-37 report the results of ex vivo target engagement assays with Compound 1 in human and mouse plasma. Whole blood from human or mouse was incubated with vehicle or Compound 1, following by a calcium ionophore stimulation. Plasma was generated and LTB4 levels were measured using ELISA. LTB4 is the product of LTA4H hydrolysis so this assay reports on LTA4H enzymatic activity.

[5] = biological target: LTA4H (Mus musculus (Mouse), UniProt P24527); test: LTB4 Target Engagement Assay (in vivo dosing, calcimycin stimulated blood); settings: for LTB4 levels in calcimycin stimulated plasma: aged mice
Description: Whole blood was collected by cardiac puncture using heparin as an anti-coagulant. 160 μL of whole blood was collected in duplicate for each mouse and incubated for 15 minutes in 37° C./5% CO2. During this time a 0.1 mM calcimycin stock was made by diluting 10 mM calcimycin (Sigma C7522) formulated in DMSO into PBS. Control solution was made by diluting the same volume of DMSO in PBS. Both solutions were sonicated for 10 minutes in a 37° C. water bath. 40 μL of 0.1 mM calcimycin (stimulated) or control solution (unstimulated) was added to each well of whole blood and incubated at 37° C./5% CO2 for 30 minutes. Whole blood was spun for 10 minutes at 1000×g to separate out plasma. LTB4 levels were detected by running an ELISA on the collected stimulated and unstimulated plasma diluted 1:10 (Enzo Life Sciences, ADI-901-068). The ELISA plates were read on a BMG LABTECH CLARIOstar plate reader at 405 nm.
FIGS. 60-62 report the results of in vivo target engagement assays with Compound 1 in mouse plasma. Whole blood from mice dosed with Compound 1 for 10-day FIG. 60 or 4 weeks FIG. 61 was incubated with a calcium ionophore to stimulate LTB4 release. Plasma was generated and LTB4 levels were measured using ELISA. LTB4 is the product of LTA4H hydrolysis so this assay reports on LTA4H enzymatic activity.

[6] = test system: LTA4H hydrolysis activity in human whole blood; test: Ex Vivo LTB4 Assay, human blood; format: cell-based; settings: human whole blood incubated with compound
Description: as §1, §2

[7] = test system: aged mice; test: LPS model of blood-brain-barrier (BBB) leakiness; format: in vivo, mouse
Description: FIGS. 63-66 report the results of an in vivo model of blood-brain-barrier (BBB) leakiness. Aged mice were treated for 4 weeks with vehicle or Compound 1 followed by an acute high dose of LPS was used to induce BBB breakdown. Sodium fluorescein was injected by tail vein and leakiness of sodium fluorescein into the brain was measured using a fluorescent plate reader. FIG. 63 reports that LPS induced BBB breakdown in young and aged mice. […] (n=69, 57)). FIG. 65 reports the GFAP intensity across a 60 micron (μm) long line drawn across the large descending vessels of the CA1 hippocampus after 4 weeks of dosing with vehicle or Compound 1 followed by a high dose LPS to induced BBB breakdown. (Mixed effects analysis with repeated measures. (n=69, 57)). FIG. 66 reports the results of in vivo target engagement assays with Compound 1 in mouse plasma. Whole blood from mice dosed with Compound 1 for 4 weeks followed by high dose LPS was incubated with a calcium ionophore to stimulate LTB4 release. Plasma was generated and LTB4 levels were measured using ELISA. LTB4 is the product of LTA4H hydrolysis so this assay reports on LTA4H enzymatic activity. […] (Kruskal-Wallis test with Dunn's multiple comparisons with post-hoc Mann-Whitney test. ****p<0.0001 (n=8, 9, 8, 9)).

[8] = single oral gavage dose 10, 1, 0.3, 0.1 mg/kg

Chain of LTA4H (P24527 whole entry): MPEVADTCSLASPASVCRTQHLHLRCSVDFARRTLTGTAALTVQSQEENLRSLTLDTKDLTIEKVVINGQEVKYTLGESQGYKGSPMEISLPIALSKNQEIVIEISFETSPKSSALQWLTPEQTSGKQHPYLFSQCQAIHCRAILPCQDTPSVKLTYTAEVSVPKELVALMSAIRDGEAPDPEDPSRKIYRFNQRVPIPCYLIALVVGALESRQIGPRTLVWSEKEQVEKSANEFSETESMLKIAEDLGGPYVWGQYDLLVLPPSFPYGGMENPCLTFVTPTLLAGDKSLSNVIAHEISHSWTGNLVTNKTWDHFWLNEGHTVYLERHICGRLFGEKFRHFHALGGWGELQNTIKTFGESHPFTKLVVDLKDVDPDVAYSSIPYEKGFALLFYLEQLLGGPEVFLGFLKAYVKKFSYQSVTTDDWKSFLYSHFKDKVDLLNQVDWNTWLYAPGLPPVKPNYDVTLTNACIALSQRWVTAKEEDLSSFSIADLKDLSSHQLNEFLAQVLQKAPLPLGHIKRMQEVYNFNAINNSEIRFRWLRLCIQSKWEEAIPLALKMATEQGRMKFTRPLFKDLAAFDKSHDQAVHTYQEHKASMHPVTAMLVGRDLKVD

O=C(O)C1CCN(Cc2ccc([C@H]3COc4ccccc4O3)cc2)CC1 [Example 1, 1-{4-[(2S)-2,3-dihydro-1,4-benzodioxin-2-yl]benzyl}piperidine-4-carboxylic acid]
brain penetration ([1]; single oral dose): brain penetrant, even at low doses
blood levels of Compound 1 [1, 8]: sustained and detectable in plasma and blood for up to 24 hours
brain levels of Compound 1 [1, 8]: sustained and detectable for up to 24 hours
plasma levels of Compound 1 [1, 8]: sustained and detectable in plasma and blood for up to 24 hours
cortical MMP9 protein [2]: trending reduction in cortical MMP9 protein
cortical Pecam-1 protein [2]: trending reduction in cortical Pecam-1 protein
percent time freezing during testing phase of CFC [3]: increased freezing time
LTB4 plasma levels after calcium ionophore stimulation [4]: reduces LTB4 plasma levels to unstimulated levels
LTB4 levels in calcimycin stimulated plasma ([5]; 4 weeks of dosing): inhibition of LTA4H
LTB4 levels in calcimycin stimulated plasma ([5]; 10 days of dosing): inhibition of LTA4H
LTB4 inhibition, compound made for 3 independent studies ([5]; young mice, 2 hours after a single dose): no difference in the amount of inhibition across the 3 independent studies
LTB4 plasma levels after calcium ionophore stimulation [6]: reduces LTB4 plasma levels to unstimulated levels
LTB4 levels in calcimycin stimulated plasma ([7]; 4 weeks of dosing followed by LPS): trending reduction
AQP4 intensity across large descending vessels of CA1 hippocampus ([7]; 4 weeks of dosing then high dose LPS): trending reduction in AQP4 intensity
LTB4 levels in calcimycin stimulated plasma ([7]; 4 weeks of dosing, without LPS): significant reduction in LTB4 levels
BBB leakiness (sodium fluorescein in brain) ([7]; aged mice, 4 weeks treatment then acute high dose LPS): trend towards reduced BBB leakiness
